Laboratory results taken from PubChem BioAssay (NCI).
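Where inhibition never reached the appropriate level, the endpoint shown equals the highest concentration tested. Otherwise, values were interpolated linearly from a five-concentration, 48-hour dose response in 96-well plates. TGI is the concentration that stops growth completely.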

Assays:
Experiment in all cases: NCI-60 cell line screen, 48 h
[1] = test system: ACHN renal
[2] = test system: DMS 114 small cell lung
[3] = test system: DMS 273 small cell lung
[4] = test system: HCT-116 colon
[5] = test system: HCT-15 colon
[6] = test system: HOP-62 NSCLC
[7] = test system: UACC-62 melanoma
[8] = test system: DU-145 prostate
[9] = test system: HCC-2998 colon
[10] = test system: SF-539 CNS
[11] = test system: T-47D breast

Compound: COc1ccc2c(c1OC)C(=O)C2
- TGI [1]: > 100 µM
- TGI [2]: > 100 µM
- TGI [3]: > 100 µM
- TGI [4]: > 100 µM
- TGI [5]: > 100 µM
- TGI [6]: > 100 µM
- TGI [7]: > 100 µM

Compound: C(=N\NC1=NCCCCN1)/c1ccc2ccccc2c1
- TGI [1]: > 100 µM
- TGI [8]: > 100 µM
- TGI [9]: 30.3 µM
- TGI [4]: > 100 µM
- TGI [5]: 87.5 µM
- TGI [6]: > 100 µM
- TGI [10]: 51.3 µM
- TGI [11]: 62 µM
- TGI [7]: 79.8 µM

Compound: N=C1OC(CN2CCN(c3ccccc3)CC2)CN1C(=O)Nc1ccccc1 (centres undefined)
- TGI [1]: > 100 µM
- TGI [8]: > 100 µM
- TGI [9]: > 100 µM
- TGI [4]: > 100 µM
- TGI [5]: > 100 µM
- TGI [6]: > 100 µM
- TGI [11]: > 100 µM
- TGI [7]: > 100 µM

Compound: Cc1cccc2c(=O)c3cccc([C@H](C)C(=O)O)c3oc12
- TGI [1]: > 100 µM
- TGI [8]: > 100 µM
- TGI [9]: > 100 µM
- TGI [4]: > 100 µM
- TGI [5]: > 100 µM
- TGI [6]: > 100 µM
- TGI [10]: > 100 µM
- TGI [11]: > 100 µM
- TGI [7]: > 100 µM

Compound: COc1cc(C[C@@]2(C)[C@@H]3CCC[C@H](CO)[C@@]3(C)CC[C@@H]2C)c(Cl)c(OC)c1
- TGI [1]: 29.4 µM
- TGI [8]: 30 µM
- TGI [9]: 29.8 µM
- TGI [4]: 24.7 µM
- TGI [5]: 34.1 µM
- TGI [6]: 31.6 µM
- TGI [10]: 29.4 µM
- TGI [11]: 22.9 µM
- TGI [7]: 28.9 µM

Compound: COC(=O)[C@@]12CSC[C@]1(C(=O)OC)N[C@@H](c1ccccc1O)C2
- TGI [1]: > 100 µM
- TGI [8]: > 100 µM
- TGI [9]: > 100 µM
- TGI [4]: > 100 µM
- TGI [5]: > 100 µM
- TGI [6]: > 100 µM
- TGI [10]: > 100 µM
- TGI [11]: > 100 µM
- TGI [7]: > 100 µM

Compound: CC(C)(C)OC(=O)NC(CSCc1ccc(C(=O)c2ccccc2)cc1)C(=O)N1CCN(CCCCN2c3ccccc3Sc3cc(N=[N+]=[N-])ccc32)CC1 (centres undefined)
- TGI [1]: > 100 µM
- TGI [8]: > 100 µM
- TGI [9]: > 100 µM
- TGI [4]: > 100 µM
- TGI [5]: > 100 µM
- TGI [6]: > 100 µM
- TGI [10]: > 100 µM
- TGI [11]: > 100 µM
- TGI [7]: > 100 µM

Compound: Cc1ccc([N+](=O)[O-])cc1S(=O)(=O)Nc1ccc(C2=NN(S(=O)(=O)c3cc([N+](=O)[O-])ccc3C)C(c3cccs3)C2)cc1 (centres undefined)
- TGI [1]: > 100 µM
- TGI [8]: > 100 µM
- TGI [9]: 56.6 µM
- TGI [4]: 77 µM
- TGI [5]: > 100 µM
- TGI [6]: > 100 µM
- TGI [11]: > 100 µM
- TGI [7]: 47.5 µM

Compound: O=C(N/N=C\c1ccc(Cl)cc1)Nc1ccc2ccccc2c1
- TGI [1]: > 100 µM
- TGI [8]: > 100 µM
- TGI [9]: > 100 µM
- TGI [4]: > 100 µM
- TGI [5]: > 100 µM
- TGI [6]: 51.3 µM
- TGI [10]: 75.7 µM
- TGI [11]: > 100 µM
- TGI [7]: > 100 µM

Compound: O=C(O)c1ccc2c(O)c(O)ccc2c1
- TGI [1]: 29.3 µM
- TGI [8]: > 100 µM
- TGI [9]: > 60.9 µM
- TGI [4]: 79.7 µM
- TGI [5]: 55 µM
- TGI [6]: 41 µM
- TGI [10]: > 100 µM
- TGI [11]: > 100 µM

Compound: Cc1nc2c(Cl)cc(Cl)cc2c2c1CCO2
- TGI [1]: > 100 µM
- TGI [8]: > 100 µM
- TGI [9]: > 100 µM
- TGI [4]: > 100 µM
- TGI [5]: > 100 µM
- TGI [10]: > 100 µM
- TGI [11]: > 100 µM
- TGI [7]: > 100 µM

Compound: COP(=O)(OC)C(N)Cc1c[nH]c2ccccc12 (centres undefined)
- TGI [1]: > 100 µM
- TGI [8]: > 100 µM
- TGI [9]: > 100 µM
- TGI [4]: > 100 µM
- TGI [5]: > 100 µM
- TGI [6]: > 100 µM
- TGI [11]: > 100 µM

Compound: COc1ccc(-c2cc(-c3ccc(C)cc3)n(C3OC(COC(C)=O)C(OC(C)=O)C(OC(C)=O)C3OC(C)=O)c(=S)c2C#N)cc1 (centres undefined)
- TGI [1]: > 100 µM
- TGI [8]: > 100 µM
- TGI [9]: > 100 µM
- TGI [4]: > 100 µM
- TGI [5]: > 100 µM
- TGI [6]: > 100 µM
- TGI [10]: > 100 µM
- TGI [11]: > 100 µM
- TGI [7]: > 100 µM

Compound: N=c1oc2ccc3ccccc3c2cc1-c1nc2ccccc2c(=O)[nH]1
- TGI [1]: 34 µM
- TGI [8]: > 100 µM
- TGI [9]: > 100 µM
- TGI [4]: > 100 µM
- TGI [5]: > 100 µM
- TGI [6]: 45.4 µM
- TGI [10]: > 100 µM
- TGI [11]: > 100 µM
- TGI [7]: 44.1 µM

Compound: C/C(Cc1ccc2c(c1)OCO2)=N\N=c1\sc2ccccc2n1C
- TGI [1]: > 100 µM
- TGI [8]: > 100 µM
- TGI [9]: > 100 µM
- TGI [4]: > 100 µM
- TGI [5]: > 100 µM
- TGI [6]: > 100 µM
- TGI [10]: > 100 µM
- TGI [11]: > 100 µM
- TGI [7]: > 100 µM

Compound: Cc1cn(S(=O)(=O)c2ccccc2)c2c(OCc3ccccc3)cc([N+](=O)[O-])cc12
- TGI [1]: > 100 µM
- TGI [8]: > 100 µM
- TGI [9]: > 100 µM
- TGI [4]: > 100 µM
- TGI [5]: > 100 µM
- TGI [10]: > 100 µM
- TGI [11]: > 100 µM
- TGI [7]: > 100 µM

Compound: O=C(Cn1c2ccc(Br)cc2c2nc3ccccc3nc21)NCc1ccccc1
- TGI [1]: 41.7 µM
- TGI [8]: > 100 µM
- TGI [9]: > 100 µM
- TGI [4]: > 100 µM
- TGI [5]: > 100 µM
- TGI [6]: > 100 µM
- TGI [11]: 18.6 µM
- TGI [7]: 93.4 µM

Compound: Cc1cc(=O)[nH]c2cc(NC(=O)C(C)NC(=O)C(C)NC(=O)C(C)NC(=O)OC(C)(C)C)ccc12 (centres undefined)
- TGI [1]: > 15 µM
- TGI [8]: > 15 µM
- TGI [9]: > 15 µM
- TGI [4]: > 15 µM
- TGI [5]: > 15 µM
- TGI [6]: > 15 µM
- TGI [10]: > 15 µM
- TGI [11]: > 15 µM
- TGI [7]: > 15 µM

Compound: CCN(CC)Cc1cc(N=Nc2c(O)ccc3c(N=Nc4ccc(O)c(CN(CC)CC)c4)c(O)ccc23)ccc1O
- TGI [1]: 7.71 µM
- TGI [8]: 9.55 µM
- TGI [9]: 5.18 µM
- TGI [4]: 4.38 µM
- TGI [5]: 4.7 µM
- TGI [6]: 15.2 µM
- TGI [10]: 9.2 µM
- TGI [11]: 32.7 µM
- TGI [7]: 16.2 µM

Compound: N=c1oc2cc(O)ccc2cc1C(=O)Nc1ccccn1
- TGI [1]: > 100 µM
- TGI [8]: 61 µM
- TGI [9]: > 100 µM
- TGI [4]: > 100 µM
- TGI [5]: > 100 µM
- TGI [6]: > 100 µM
- TGI [10]: > 100 µM
- TGI [11]: > 100 µM
- TGI [7]: > 100 µM

Compound: O=C(COc1cc(=O)oc2ccccc12)c1ccccc1
- TGI [1]: 36.4 µM
- TGI [8]: > 100 µM
- TGI [9]: > 100 µM
- TGI [4]: 32 µM
- TGI [5]: > 100 µM
- TGI [6]: > 100 µM
- TGI [10]: 58.7 µM
- TGI [11]: > 100 µM
- TGI [7]: 44.1 µM

Compound: COc1ccc(-c2cc(=O)c3c(O)c(O)c(OC)cc3o2)cc1O
- TGI [1]: > 100 µM
- TGI [3]: > 100 µM
- TGI [9]: > 100 µM
- TGI [4]: > 100 µM
- TGI [5]: > 100 µM
- TGI [6]: > 100 µM
- TGI [10]: > 100 µM
- TGI [7]: > 100 µM

Compound: CCN(CC)CCC(=O)/C=C/c1ccc(Cl)c(Cl)c1
- TGI [1]: > 10 µM
- TGI [8]: > 10 µM
- TGI [9]: > 10 µM
- TGI [4]: 3.74 µM
- TGI [5]: > 10 µM
- TGI [6]: > 10 µM
- TGI [11]: 5.86 µM
